In patent publication US20110003760A1, “ABNORMAL PROTEIN REMOVING METHOD” (priority 2005, published 2011):

Columns and labels:
[1] = test system: carbonylated protein in three-dimensional human skin model TESTSKIN (LSE-high); assay: Carbonylated protein in three-dimensional human skin model, Western blotting (DNPH); type: cell-based; details: for Relative photographic density (carbonylated protein): untreated without UV = 100%
Protocol: (§1) Three-dimensional human skin models are widely used in safety evaluation and effectiveness evaluation as a simulated model of human skin. In this test, TESTSKIN (LSE-high) (Toyobo Co., Ltd.) was used as a three-dimensional human skin model.
(§2) A culture medium was added to the outer well of TESTSKIN (LSE-high) and cultured for 24 hours. UVA and UVB were irradiated at 10 J/cm^2 and 100 mJ/cm^2, respectively. UVB was irradiated for 2 minutes at a UV intensity of […] using FL20S-E-30/DMR (Clinical Supply Co., Ltd.) to achieve a total irradiation dose of 100 mJ/cm^2. UV intensity was measured using a UV MONITOR MS-211-I (Eiko Instruments Co., Ltd.).
As a control group, three-dimensional human skin models not irradiated with UVA or UVB were also prepared.
(§3) Thereafter, the culture solution was changed and each agent was added by 100 μl onto the tissues in the assay ring, after which the medium was cultured for 36 hours. Thereafter, the tissues were collected and a tissue extraction solution (50 mM Tris-HCl (pH 7.5), 0.5% (Octylphenoxy) polyethoxyethanol (Sigma-Aldrich Corp.)) was added, and then the mixture was homogenized using a Teflon (registered trademark) homogenizer. The homogenized mixture was centrifuged for 30 minutes at 10,000×G to remove tissue fragments, and then dialyzed overnight in distilled water at 4° C. Thereafter, the dialyzed mixture was freeze-dried to remove water. A tissue extraction solution was added to obtain a ×20 concentrate, and this concentrate was used as a three-dimensional skin model extract sample.
In this test, 2,4-dinitrophenyl hydrazine (DNPH), which specifically bonds with the carbonyl group in the protein produced by oxidation damage, was used to label carbonylated protein, and then detection was performed using an anti-DNPH antibody that specifically bonds with DNPH.
The specific method is explained below. DNPH protein was detected from the protein in the sample by means of Western blotting using a DNPH kit (Oxi Blot™ Protein Oxidation Detection Kit; Chemicon International Inc.). Detection was performed by exposing PVDF membranes to light using a […] (ECL PLUS; Amarsham PLC), and an automatic developer (FPM100; FUJIFILM Medical Co., Ltd.) was used to transfer images. A densitometer (Molecular Dynamics Inc.) was then used to analyze the images to quantify the photographic density. For your information, protein in the sample was reduced and measured as deemed appropriate. In this case, 2-mercaptoethanol was used as a reducing agent and the mixture was heated for 5 minutes at 100° C. to sever the disulfide bond.
Based on the above results, it is clear that Bletilla striata extract and silybin suppress accumulation of carbonylated protein in a three-dimensional skin model in a manner dependent on the concentration. Accordingly, whether or not a combined use of Bletilla striata extract and silybin would synergistically suppress accumulation of carbonylated protein was evaluated. Also, whether or not a combined use of silybin and soybean saponin, a substance known to have an action to suppress accumulation of carbonylated protein, would synergistically suppress accumulation of carbonylated protein was evaluated. As a result, regardless of whether or not UV light was irradiated using silybin (3 μM) in combination with Bletilla striata extract (0.1%; final extract concentration of 0.001%), or using silybin (3 μM) in combination with soybean saponin (0.0005%), suppressed the accumulation of carbonylated protein synergistically compared to when a sample was treated with silybin (3 μM), Bletilla striata extract (0.1%; final extract concentration of 0.001%) or soybean saponin (0.0005%) alone, as far as accumulation of carbonylated protein in a three-dimensional skin model was concerned (FIG. 7 and Table 7; results of non-reduced protein).

[2] = test system: three-dimensional human skin model; assay: Cell toxicity at treatment concentrations in three-dimensional human skin model; details: at 3 and 10 μM
[3] = test system: trypsin-like proteasome activity in three-dimensional human skin model; assay: Proteasome activity in three-dimensional human skin model; type: cell-based; details: for proteasome activity compared to the sample not given any treatment: without UV irradiation
Protocol: as §1, §2, §3
Proteasome activity was measured using a known method (Hayashi, et al., Mechanisms of Aging and Development, Vol. 102, pp. 55-66, 1998) based on cell extract samples.
The specific method is as follows. For the matrix to measure trypsin-like proteasome activity, t-butyloxycarbonyl-L-leucyl-L-arginyl-L-arginyl-L-4-methyl-coumaryl-7-amide (Peptide Institute, Inc.) was used. A cell extract sample containing protein by an equivalent of 10 μg was added to 10.5 μl of a 100 μM matrix solution prepared with 100 mM Tris-HCl (pH 8.0), after which a cell extraction solution was added to a total volume of 50 μl. The obtained solution was treated for 30 minutes at 37° C., after which the fluorescence intensity of the separated 7-amine-4-methyl coumarin was measured at an excitation wavelength (Ex) of 380 nm and absorption waveform (Em) of 440 nm. The result was obtained for each sample type treated with each agent, as an “average ±standard error” calculated from the measured values of three samples.
Based on the above results, it is clear that Bletilla striata extract and silybin promote proteasome activity in a three-dimensional skin model in a manner dependent on the concentration. Accordingly, whether or not a combined use of Bletilla striata extract and silybin would synergistically promote proteasome activity was evaluated. Also, whether or not a combined use of silybin and soybean saponin, a substance known to have an action to promote proteasome activity, would synergistically promote proteasome activity was evaluated. As a result, regardless of whether or not UV light was irradiated, using silybin (3 μM) in combination with Bletilla striata extract (0.1%; final extract concentration of 0.001%), or using silybin (3 μM) in combination with soybean saponin (0.0005%), promoted proteasome activity synergistically compared to when a sample was treated with silybin (3 μM), Bletilla striata extract (0.1%; final extract concentration of 0.001%) or soybean saponin (0.0005%) alone, as far as promotion of proteasome activity in a three-dimensional skin model was concerned (FIG. 12).

[4] = FIG. 11, 3 μM, under UV irradiation
[5] = FIG. 11, 10 μM, under UV irradiation
[6] = FIG. 12, under UV irradiation, silybin 3 μM, Bletilla striata extract 0.1%, soybean saponin 0.0005%, alone or combined

## COc1cc(C2Oc3cc([C@H]4Oc5cc(O)cc(O)c5C(=O)[C@@H]4O)ccc3OC2CO)ccc1O (some centres unmarked) [Silybin, silybin]
[1]; Table 7, non-reduced protein, head printed UV (−), silybin 3 μM, Bletilla striata extract 0.1%, soybean saponin 0.0005%, alone or combined
  Relative photographic density (carbonylated protein): 300%
[1]; Table 7, non-reduced protein, first column UV (−), silybin 3 μM, Bletilla striata extract 0.1%, soybean saponin 0.0005%, alone or combined
  Relative photographic density (carbonylated protein): 60%
[1]; non-reduced protein, 3 μM
  amount of carbonylated protein compared to the sample not given any treatment under UV irradiation: 30%
[1]; non-reduced protein, 10 μM
  amount of carbonylated protein compared to the sample not given any treatment under UV irradiation: 9%
[1]; non-reduced protein, silybin 3 μM, Bletilla striata extract 0.1%, soybean saponin 0.0005%, alone or combined
  amount of carbonylated protein compared to the sample not given any treatment under UV irradiation: 60%
[1]; non-reduced protein, treatment concentration 3 μM, UV (+)
  Relative photographic density (carbonylated protein): 95%
[1]; non-reduced protein, treatment concentration 3 μM, UV (−)
  Relative photographic density (carbonylated protein): 55%
[1]; non-reduced protein, treatment concentration 10 μM, UV (+)
  Relative photographic density (carbonylated protein): 30%
[1]; non-reduced protein, treatment concentration 10 μM, UV (−)
  Relative photographic density (carbonylated protein): 8%
[1]; reduced protein, 3 μM
  amount of carbonylated protein compared to the sample not given any treatment under UV irradiation: 25%
[1]; reduced protein, 10 μM
  amount of carbonylated protein compared to the sample not given any treatment under UV irradiation: 10%
[1]; reduced protein, treatment concentration 3 μM, UV (+)
  Relative photographic density (carbonylated protein): 85%
[1]; reduced protein, treatment concentration 3 μM, UV (−)
  Relative photographic density (carbonylated protein): 50%
[1]; reduced protein, treatment concentration 10 μM, UV (+)
  Relative photographic density (carbonylated protein): 35%
[1]; reduced protein, treatment concentration 10 μM, UV (−)
  Relative photographic density (carbonylated protein): 5%
[1]; reduced protein, treatment concentration 10 μM, UV (−), listed as silybin
  Relative photographic density (carbonylated protein): 10%
[2]
  cell toxicity: does not occur
[3]; [4]
  proteasome activity compared to the sample not given any treatment under UV irradiation (75%): 140%
  relative proteasome activity level: 105%
[3]; FIG. 11, 3 μM
  proteasome activity compared to the sample not given any treatment: 145%
[3]; [5]
  proteasome activity compared to the sample not given any treatment under UV irradiation (75%): 170%
  relative proteasome activity level: 128%
[3]; FIG. 11, 10 μM
  proteasome activity compared to the sample not given any treatment: 178%
[3]; [6]
  proteasome activity compared to the sample not given any treatment under UV irradiation (73%): 121%
  relative proteasome activity level: 88%
[3]; FIG. 12, silybin 3 μM, Bletilla striata extract 0.1%, soybean saponin 0.0005%, alone or combined
  proteasome activity compared to the sample not given any treatment: 125%
